From patent US8912184B1, “Therapeutic and diagnostic methods” (Alzheimer's Institute of America, Inc., priority 2010, dated 2014)

Legend:
HCT116 cells [1] = assay: NAD measured in cellular lysates (NAD depletion) of HCT116 cells; type: cell-based, human; settings: for IC50: Homo sapiens
Procedure: NAD in cells was measured by modification of existing protocols (Lee, H. I., et al. Exp. Mol. Med. 40, 246-253 (2008)). MCF-10A cells stably transduced with the PIK3CA(H1047R) oncogene were seeded in 96 well plates at very high density (100% confluence) and allowed to settle overnight. Test compound dissolved in DMSO was added and drug incubation proceeded for 20-24 hours. Cells were washed with PBS and harvested by incubation in 25 μL 0.5 M perchloric acid (HClO4) followed by vigorous shaking at 4° C. for 15 minutes. Acidic cell lysates were neutralized by adding 8 μL of 2 M KOH/0.2 M K2HPO4. The entire lysate volume was transferred to a centrifuge plate and spun at 3000 rpm in a table top centrifuge (4° C.) for 5 minutes to clear the precipitate. Lysate was assayed for both NAD and ATP. For NAD measurement, 10 μL lysate from the centrifuged plate was added to 90 μL of reaction solution in Costar 96 half-well plates (Corning, Corning, N.Y.). […]. Reactions were allowed to proceed for 1 hour at room temperature, after which time fluorescence was read on a Gemini plate reader as described above.
Using such methods NAD Depeletion was followed in lysates of Naprt-proficient HCT116 cells, exposed to Exemplary Compound A, as shown in FIG. 4 (a). […].
Kinetics of NAD and ATP depletion in Naprt1-proficient HCT116 cells induced by Exemplary Compound A was studied using the assays described above. HCT116 cells were treated with 8.5 nM Exemplary Compound A and cellular NAD and ATP were measured at various times.
Potency of Exemplary Compound A as a function of time of exposure was also studied using the assays described above. Cells were treated with a range of Exemplary Compound A concentration for varying times of exposure, and IC50 values for NAD and ATP depletion were determined. […].

HCT116 cells [2] = assay: ATP measured in cellular lysates (ATP depletion) of HCT116 cells; type: cell-based; settings: Homo sapiens, read-out: potency (IC50) for ATP depletion
Procedure: NAD in cells was measured by modification of existing protocols (Lee, H. I., et al. Exp. Mol. Med. 40, 246-253 (2008)). MCF-10A cells stably transduced with the PIK3CA(H1047R) oncogene were seeded in 96 well plates at very high density (100% confluence) and allowed to settle overnight. Test compound dissolved in DMSO was added and drug incubation proceeded for 20-24 hours. Cells were washed with PBS and harvested by incubation in 25 μL 0.5 M perchloric acid (HClO4) followed by vigorous shaking at 4° C. for 15 minutes. Acidic cell lysates were neutralized by adding 8 μL of 2 M KOH/0.2 M K2HPO4. The entire lysate volume was transferred to a centrifuge plate and spun at 3000 rpm in a table top centrifuge (4° C.) for 5 minutes to clear the precipitate. […] Reactions were allowed to proceed for 1 hour at room temperature, after which time fluorescence was read on a Gemini plate reader as described above.
For ATP measurement, 5 μL of cleared lysate was added to 195 μL PBS. 50 μL CellTiter-Glo reagent (Promega Corporation, Madison, Wis.) was added and ATP measured as described in the cytotoxicity assay methods.
Kinetics of NAD and ATP depletion in Naprt1-proficient HCT116 cells induced by Exemplary Compound A was studied using the assays described above. HCT116 cells were treated with 8.5 nM Exemplary Compound A and cellular NAD and ATP were measured at various times. […]

HCT116 cells [3] = assay: 72 Hour HCT116 Cytotoxicity Assay (CellTiter-Glo); type: cell-based; settings: Homo sapiens, HCT-116, 72 h, HCT116 cells, 72 h, read-out: IC50 cytotoxicity
Procedure: HCT116 cells were seeded in 96 well plates (Greiner Bio-One, Monroe, N.C.) and allowed to settle overnight. Test compound dissolved in dimethyl sulfoxide (DMSO) was added and drug incubation proceeded for 72 hours. […] After 72 hour, 50 μL of CellTiter-Glo Luminescent Cell Viability Assay reagent (Promega Corporation, Madison, Wis.) was added to cells in 200 μL of cellular media. After a proscribed incubation period, luminescence was measured using a TopCount NXT plate reader (PerkinElmer, Waltham, Mass.).

HCT116 xenograft tumors [4] = assay: NAD levels in tumor lysates of HCT116 xenograft mice; type: in vivo; settings: single oral dose on day 0, after two days
Procedure: (§1) Exemplary Compound A was tested for its ability to deplete NAD levels and promote tumor regression in an HCT116 (i.e., a Naprt-proficient cancer) murine xenograft model. Three million HCT116 human colon carcinoma cells were injected subcutaneously into nu/nu mice to form tumors. Dosing was started ten days later when median tumor volume was >100 mm^3.
Exemplary Compound A was administered orally once on day 0 (arrow) to HCT116 tumor-bearing xenograft mice and NAD levels were determined for tumor lysates every other day for 8 days.

HCT116 xenograft tumors [5] = assay: HCT116 human colon carcinoma murine xenograft, tumor growth/regression; type: in vivo, nu/nu mice
Procedure: as §1
Exemplary Compound A was administered orally to HCT116 tumor-bearing xenograft mice once (arrow) at the maximum tolerated dose of 75 mg/kg with or without simultaneous delivery of NA by Alzet pump (470 mg/kg/day for three days) (FIG. 8(b)).
(§2) The effect of weekly administration of Exemplary Compound A on tumor growth was examined in murine HCT116 xenograft models (FIG. 8(c)). HCT116 tumor-bearing xenograft mice were orally dosed with 75 mg/kg Exemplary Compound A weekly for three cycles (arrows), resulting in a maximal tumor response of 10% regression on day 18.
as §2, with “daily” for “weekly”, “8(d)).” for “8(c)).”, “10” for “75”, “21 days (black bar),” for “three cycles (arrows),”, “32%” for “10%”, “11.” for “18.”

[6] = test system: MIAPaCa-2 xenograft tumors; assay: MIAPaCa-2 human pancreatic carcinoma murine xenograft, tumor growth and survival; type: in vivo, mice; settings: for animals having tumor volumes >1500 mm3 at end of study: Day 40
Procedure: Exemplary Compound A was tested for its ability to suppress tumor growth, and promote survival in MIAPaCa-2 human pancreatic carcinoma (i.e., a Naprt-deficient cancer) murine xenograft models (FIG. 9). In these experiments, MIAPaCa-2 tumor-bearing mice with a median tumor volume of 202 mm^3 were orally dosed on days 1, 10 and 19 with either vehicle, 75 mg/kg Exemplary Compound A or 200 mg/kg Exemplary Compound A in combination with 400 mg/kg NA, or were orally dosed daily with 400 mg/kg NA for 21 days. See key below FIG. 9(b). NA was always administered one hour prior to dosing with Exemplary Compound A or vehicle.

O=C(NCc1cccnc1)Nc1ccc(COc2ccccc2-c2ccccc2)cc1 [Exemplary Compound A, 1-{4-[(biphenyl-2-yloxy)methyl]phenyl}-3-(pyridin-3-ylmethyl)urea]
NAD depletion reached before loss of ATP initiated (HCT116 cells [1]; HCT116 cells, 8.5 nM): > 90%
IC50 (HCT116 cells [1]; HCT-116, 0.5 h, exposure 30 min, read-out: potency (IC50) for NAD depletion): 23 nM
IC50 (HCT116 cells [1]; HCT-116, 24 h, HCT116 cells, 24 h, absence of 10 μM NA, read-out: IC50 NAD depletion): 0.26 nM
IC50 (HCT116 cells [1]; HCT-116, 24 h, HCT116 cells, 24 h, presence of 10 μM NA, read-out: IC50 NAD depletion): > 1000 nM
IC50 (HCT116 cells [1]; HCT-116, 48 h, after 48 h exposure, read-out: potency (IC50) for NAD depletion): ~0.6 nM
IC50 (HCT116 cells [2]; HCT-116, 0.5 h, exposure 30 min): 33 nM
IC50 (HCT116 cells [2]; HCT-116, after 48 h exposure): ~0.6 nM
IC50 (HCT116 cells [3]; absence of 10 μM NA): 0.26 nM
IC50 (HCT116 cells [3]; presence of 10 μM NA): > 10000 nM
depletion of NAD in tumor lysates (HCT116 xenograft tumors [4]): 94%
maximal tumor response, regression (HCT116 xenograft tumors [5]; oral 10 mg/kg daily for 21 days, day 11): 32%
maximal tumor response, regression (HCT116 xenograft tumors [5]; oral 75 mg/kg weekly for three cycles, day 18): 10%
tumor regression induced by single dose, in the presence of NA (HCT116 xenograft tumors [5]; oral once 75 mg/kg, NA by Alzet pump 470 mg/kg/day for three days): completely prevented
survival ([6]; 200 mg/kg with 400 mg/kg NA): significantly increased survival
animals having tumor volumes >1500 mm3 at end of study ([6]; 200 mg/kg with 400 mg/kg NA): two
tumor growth inhibition (TGI) relative to vehicle ([6]; oral 75 mg/kg days 1, 10, 19, day 19): 53%
tumor growth inhibition (TGI) ([6]; oral 200 mg/kg with 400 mg/kg NA days 1, 10, 19, day 19): 88%
animals having tumor volumes >1500 mm3 at end of study ([6]; other cohorts (incl. 75 mg/kg)): eight
